According to paper PMC6874179, “Development of Macrocycle Kinase Inhibitors for ALK2 Using Fibrodysplasia Ossificans Progressiva‐Derived Endothelial Cells” (JBMR Plus, 2019):
pIC50: −log10 of the molar value.

Experiments:
[1] = target: T1, CDK1_cyclinA2 (Homo sapiens, UniProt P06493); assay: Proqinase Kinase profiling; assay type: biochemical; settings: read-out: % inhibition at 100nM
T1 construct: purchased DiscoverX

[2] = target: T2, NEK7 (Homo sapiens, UniProt Q8TDX7); assay: Proqinase Kinase profiling; assay type: biochemical; settings: read-out: % inhibition at 100nM
T2 construct: purchased DiscoverX
T2 sequence (Q8TDX7 whole entry): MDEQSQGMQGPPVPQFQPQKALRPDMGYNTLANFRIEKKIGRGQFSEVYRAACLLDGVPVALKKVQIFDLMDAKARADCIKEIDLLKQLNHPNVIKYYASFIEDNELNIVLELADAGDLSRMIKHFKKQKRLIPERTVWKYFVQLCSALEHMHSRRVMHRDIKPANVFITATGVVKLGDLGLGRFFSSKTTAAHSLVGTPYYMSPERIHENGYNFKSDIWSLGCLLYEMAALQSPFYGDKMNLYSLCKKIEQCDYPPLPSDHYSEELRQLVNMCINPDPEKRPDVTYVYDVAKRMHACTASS

[3] = target: T3, PTK2B (Homo sapiens, UniProt Q14289); assay: Proqinase Kinase profiling; assay type: biochemical; settings: read-out: % inhibition at 100nM
T3 construct: purchased DiscoverX

[4] = target: T4, WT ALK2 receptor (Homo sapiens, UniProt Q04771); assay: BRE-LUC reporter assay in C2C12 cells cotransfected with WT ALK2; assay type: cell-based; settings: BMP-6 50 ng/mL 16 hours, 30-min preincubation, read-out: ALK2wt BMP-6 IC50
T4 construct: expressed in transfected cells; host or cells: C2C12 murine myofibroblast cells
Procedure: For luciferase reporter assays, cells were seeded in 24-well plates and transfected with DharmaFECT Duo (Fisher Scientific, Landsmeer, The Netherlands), following the recommendations of the manufacturer. 48 hours after transfection the cells were harvested and lysed. […] Each transfection mixture was equalized with empty vector when necessary and every experiment was performed in triplicate.

[5] = target: T5, PRKCG (Homo sapiens, UniProt P05129); assay: Proqinase Kinase profiling; assay type: biochemical; settings: read-out: % inhibition at 100nM
T5 construct: purchased DiscoverX

[6] = target: T6, CAMK4 (Homo sapiens, UniProt Q16566); assay: Proqinase Kinase profiling; assay type: biochemical; settings: read-out: % inhibition at 100nM
T6 construct: purchased DiscoverX

[7] = target: T7, FLT1 (Homo sapiens, UniProt P17948); assay: Proqinase Kinase profiling; assay type: biochemical; settings: read-out: % inhibition at 100nM
T7 construct: purchased DiscoverX
T7 sequence (P17948 27-1338): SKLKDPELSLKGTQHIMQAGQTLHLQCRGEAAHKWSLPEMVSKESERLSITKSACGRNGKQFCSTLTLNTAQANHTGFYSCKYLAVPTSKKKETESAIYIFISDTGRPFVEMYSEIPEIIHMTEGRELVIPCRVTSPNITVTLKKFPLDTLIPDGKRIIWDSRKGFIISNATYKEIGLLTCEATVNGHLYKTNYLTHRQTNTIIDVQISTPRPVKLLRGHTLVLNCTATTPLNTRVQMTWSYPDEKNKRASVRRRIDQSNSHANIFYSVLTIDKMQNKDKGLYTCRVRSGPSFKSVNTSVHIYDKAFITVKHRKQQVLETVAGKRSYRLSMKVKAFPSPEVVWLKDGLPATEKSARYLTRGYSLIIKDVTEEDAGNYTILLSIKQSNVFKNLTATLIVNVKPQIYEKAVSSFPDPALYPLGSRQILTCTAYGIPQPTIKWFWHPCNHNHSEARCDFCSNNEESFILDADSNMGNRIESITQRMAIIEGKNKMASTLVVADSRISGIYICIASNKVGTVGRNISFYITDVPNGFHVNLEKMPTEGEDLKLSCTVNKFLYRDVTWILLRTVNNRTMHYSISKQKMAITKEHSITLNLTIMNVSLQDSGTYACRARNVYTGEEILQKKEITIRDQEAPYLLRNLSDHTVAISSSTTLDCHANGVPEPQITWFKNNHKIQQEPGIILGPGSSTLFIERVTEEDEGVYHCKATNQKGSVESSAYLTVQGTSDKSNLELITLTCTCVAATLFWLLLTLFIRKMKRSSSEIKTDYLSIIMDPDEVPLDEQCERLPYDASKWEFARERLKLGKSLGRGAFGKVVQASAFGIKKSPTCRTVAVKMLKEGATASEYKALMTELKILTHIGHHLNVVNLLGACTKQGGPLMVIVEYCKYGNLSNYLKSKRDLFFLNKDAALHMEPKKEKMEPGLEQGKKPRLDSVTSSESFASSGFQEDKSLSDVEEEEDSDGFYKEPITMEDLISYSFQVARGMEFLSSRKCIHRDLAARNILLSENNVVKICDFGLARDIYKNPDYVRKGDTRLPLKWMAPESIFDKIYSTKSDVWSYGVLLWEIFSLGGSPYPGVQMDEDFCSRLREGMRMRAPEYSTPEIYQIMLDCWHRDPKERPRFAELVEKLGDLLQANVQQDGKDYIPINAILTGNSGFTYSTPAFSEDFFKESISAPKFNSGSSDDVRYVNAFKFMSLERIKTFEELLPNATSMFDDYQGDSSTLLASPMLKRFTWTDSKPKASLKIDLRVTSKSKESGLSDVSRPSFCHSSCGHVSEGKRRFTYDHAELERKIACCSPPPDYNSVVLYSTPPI

[8] = target: T8, PTK6 (Homo sapiens, UniProt Q13882); assay: Proqinase Kinase profiling; assay type: biochemical; settings: read-out: % inhibition at 100nM
T8 construct: purchased DiscoverX

[9] = target: T9, LIMK2 (Homo sapiens, UniProt P53671); assay: Proqinase Kinase profiling; assay type: biochemical; settings: read-out: % inhibition at 100nM
T9 construct: purchased DiscoverX

[10] = target: T10, FGFR4 (Homo sapiens, UniProt P22455); assay: Proqinase Kinase profiling; assay type: biochemical; settings: read-out: % inhibition at 100nM
T10 construct: purchased DiscoverX

[11] = target: T11, RET_G691S (Homo sapiens, UniProt P07949, G691S); assay: Proqinase Kinase profiling; assay type: biochemical; settings: read-out: % inhibition at 100nM
T11 construct: purchased DiscoverX

[12] = target: T12, YES1 (Homo sapiens, UniProt P07947); assay: Proqinase Kinase profiling; assay type: biochemical; settings: read-out: % inhibition at 100nM
T12 construct: purchased DiscoverX
T12 sequence (P07947 whole entry): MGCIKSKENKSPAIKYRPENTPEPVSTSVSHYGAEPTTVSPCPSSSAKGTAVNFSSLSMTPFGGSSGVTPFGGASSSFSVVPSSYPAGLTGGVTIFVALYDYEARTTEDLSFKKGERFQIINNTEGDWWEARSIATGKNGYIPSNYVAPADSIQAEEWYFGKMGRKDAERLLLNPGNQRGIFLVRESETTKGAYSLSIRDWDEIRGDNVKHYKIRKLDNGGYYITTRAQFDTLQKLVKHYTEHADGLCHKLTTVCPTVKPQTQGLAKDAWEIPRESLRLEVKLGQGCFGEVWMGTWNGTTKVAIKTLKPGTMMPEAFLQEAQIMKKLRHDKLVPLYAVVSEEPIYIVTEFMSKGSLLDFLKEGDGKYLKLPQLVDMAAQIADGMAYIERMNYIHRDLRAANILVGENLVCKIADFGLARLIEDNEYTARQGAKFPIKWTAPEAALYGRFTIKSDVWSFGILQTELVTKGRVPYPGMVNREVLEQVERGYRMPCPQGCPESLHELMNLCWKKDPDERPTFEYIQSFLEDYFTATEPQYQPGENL

[13] = target: T13, CDK4_cyclinD1 (Homo sapiens, UniProt P11802); assay: Proqinase Kinase profiling; assay type: biochemical; settings: read-out: % inhibition at 100nM
T13 construct: purchased DiscoverX

[14] = target: T14, CDK5_p35 (Homo sapiens, UniProt Q00535); assay: Proqinase Kinase profiling; assay type: biochemical; settings: read-out: % inhibition at 100nM
T14 construct: purchased DiscoverX

[15] = target: T15, TXK (Homo sapiens, UniProt P42681); assay: Proqinase Kinase profiling; assay type: biochemical; settings: read-out: % inhibition at 100nM
T15 construct: purchased DiscoverX

[16] = target: T16, ZAP70 (Homo sapiens, UniProt P43403); assay: Proqinase Kinase profiling; assay type: biochemical; settings: read-out: % inhibition at 100nM
T16 construct: purchased DiscoverX

[17] = target: T17, STK17A (Homo sapiens, UniProt Q9UEE5); assay: Proqinase Kinase profiling; assay type: biochemical; settings: read-out: % inhibition at 100nM
T17 construct: purchased DiscoverX

[18] = target: T18, WNK1 (Homo sapiens, UniProt Q9H4A3); assay: Proqinase Kinase profiling; assay type: biochemical; settings: read-out: % inhibition at 100nM
T18 construct: purchased DiscoverX

[19] = target: T19, MYLK2 (Homo sapiens, UniProt Q9H1R3); assay: Proqinase Kinase profiling; assay type: biochemical; settings: read-out: % inhibition at 100nM
T19 construct: purchased DiscoverX

[20] = target: T20, TEK_Y1108F (Homo sapiens, UniProt Q02763, Y1108F); assay: Proqinase Kinase profiling; assay type: biochemical; settings: read-out: % inhibition at 100nM
T20 construct: purchased DiscoverX

[21] = target: T21, ERBB4 (Homo sapiens, UniProt Q15303); assay: Proqinase Kinase profiling; assay type: biochemical; settings: read-out: % inhibition at 100nM
T21 construct: purchased DiscoverX

[22] = target: T22, CHEK1 (Homo sapiens, UniProt O14757); assay: Proqinase Kinase profiling; assay type: biochemical; settings: read-out: % inhibition at 100nM
T22 construct: purchased DiscoverX
T22 sequence (O14757 whole entry): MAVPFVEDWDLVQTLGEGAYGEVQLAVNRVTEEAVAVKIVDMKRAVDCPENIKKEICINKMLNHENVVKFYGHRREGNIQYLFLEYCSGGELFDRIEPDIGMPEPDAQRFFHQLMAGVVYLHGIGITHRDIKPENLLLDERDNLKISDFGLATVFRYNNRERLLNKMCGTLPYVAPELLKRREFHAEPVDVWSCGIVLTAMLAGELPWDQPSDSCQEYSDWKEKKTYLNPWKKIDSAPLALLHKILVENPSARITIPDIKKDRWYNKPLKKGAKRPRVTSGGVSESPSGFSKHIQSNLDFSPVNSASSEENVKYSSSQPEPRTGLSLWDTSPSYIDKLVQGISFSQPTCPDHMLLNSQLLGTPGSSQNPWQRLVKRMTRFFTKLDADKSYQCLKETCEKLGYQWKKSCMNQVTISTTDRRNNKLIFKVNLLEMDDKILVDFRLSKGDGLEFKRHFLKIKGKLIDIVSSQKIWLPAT

[23] = target: T23, LIMK1 (Homo sapiens, UniProt P53667); assay: Proqinase Kinase profiling; assay type: biochemical; settings: read-out: % inhibition at 100nM
T23 construct: purchased DiscoverX

[24] = target: T24, MET_D1228N (Homo sapiens, UniProt P08581, D1228N); assay: Proqinase Kinase profiling; assay type: biochemical; settings: read-out: % inhibition at 100nM
T24 construct: purchased DiscoverX

[25] = target: T25, JAK2 (Homo sapiens, UniProt O60674); assay: Proqinase Kinase profiling; assay type: biochemical; settings: read-out: % inhibition at 100nM
T25 construct: purchased DiscoverX

[26] = target: T26, TNK2 (Homo sapiens, UniProt Q07912); assay: Proqinase Kinase profiling; assay type: biochemical; settings: read-out: % inhibition at 100nM
T26 construct: purchased DiscoverX

[27] = target: T27, MET_Y1230A (Homo sapiens, UniProt P08581, Y1230A); assay: Proqinase Kinase profiling; assay type: biochemical; settings: read-out: % inhibition at 100nM
T27 construct: purchased DiscoverX

[28] = target: T28, MAPK1 (Homo sapiens, UniProt P28482); assay: Proqinase Kinase profiling; assay type: biochemical; settings: read-out: % inhibition at 100nM
T28 construct: purchased DiscoverX

[29] = target: T29, RPS6KA2 (Homo sapiens, UniProt Q15349); assay: Proqinase Kinase profiling; assay type: biochemical; settings: read-out: % inhibition at 100nM
T29 construct: purchased DiscoverX

[30] = target: T30, FYN (Homo sapiens, UniProt P06241); assay: Proqinase Kinase profiling; assay type: biochemical; settings: read-out: % inhibition at 100nM
T30 construct: purchased DiscoverX
T30 sequence (P06241 whole entry): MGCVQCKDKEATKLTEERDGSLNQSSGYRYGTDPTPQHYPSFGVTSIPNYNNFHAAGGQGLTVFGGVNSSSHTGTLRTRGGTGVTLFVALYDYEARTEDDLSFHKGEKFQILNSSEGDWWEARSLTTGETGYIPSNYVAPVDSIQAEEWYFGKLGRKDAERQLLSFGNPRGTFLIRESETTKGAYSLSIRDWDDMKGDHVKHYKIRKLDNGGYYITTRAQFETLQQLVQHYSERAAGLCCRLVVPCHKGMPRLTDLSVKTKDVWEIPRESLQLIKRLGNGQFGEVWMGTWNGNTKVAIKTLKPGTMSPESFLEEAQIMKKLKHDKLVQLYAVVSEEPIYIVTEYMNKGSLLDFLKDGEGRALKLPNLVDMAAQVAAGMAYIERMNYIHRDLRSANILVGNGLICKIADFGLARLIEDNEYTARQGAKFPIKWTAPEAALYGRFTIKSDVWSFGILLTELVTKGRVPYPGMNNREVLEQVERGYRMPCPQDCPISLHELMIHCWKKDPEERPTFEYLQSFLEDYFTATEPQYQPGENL

[31] = target: T31, EGFR_L858R (Homo sapiens, UniProt P00533, L858R); assay: Proqinase Kinase profiling; assay type: biochemical; settings: read-out: % inhibition at 100nM
T31 construct: purchased DiscoverX

[32] = target: T32, CDK2_cyclinA2 (Homo sapiens, UniProt P24941); assay: Proqinase Kinase profiling; assay type: biochemical; settings: read-out: % inhibition at 100nM
T32 construct: purchased DiscoverX

[33] = target: T33, CSNK1G1 (Homo sapiens, UniProt Q9HCP0); assay: Proqinase Kinase profiling; assay type: biochemical; settings: read-out: % inhibition at 100nM
T33 construct: purchased DiscoverX
T33 sequence (Q9HCP0 whole entry): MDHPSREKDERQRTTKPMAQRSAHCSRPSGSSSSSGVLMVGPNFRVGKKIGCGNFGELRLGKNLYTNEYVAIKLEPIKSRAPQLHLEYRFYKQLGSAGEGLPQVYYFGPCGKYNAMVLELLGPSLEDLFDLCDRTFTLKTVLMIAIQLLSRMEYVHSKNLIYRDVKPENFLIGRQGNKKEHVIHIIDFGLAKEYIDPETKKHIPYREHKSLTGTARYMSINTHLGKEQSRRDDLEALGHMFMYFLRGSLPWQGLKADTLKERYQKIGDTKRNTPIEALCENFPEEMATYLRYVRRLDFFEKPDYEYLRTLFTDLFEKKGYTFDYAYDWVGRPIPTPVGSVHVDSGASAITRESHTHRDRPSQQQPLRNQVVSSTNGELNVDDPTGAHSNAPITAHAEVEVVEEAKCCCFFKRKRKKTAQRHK

[34] = target: T34, MAPK3 (Homo sapiens, UniProt P27361); assay: Proqinase Kinase profiling; assay type: biochemical; settings: read-out: % inhibition at 100nM
T34 construct: purchased DiscoverX

[35] = target: T35, DAPK1 (Homo sapiens, UniProt P53355); assay: Proqinase Kinase profiling; assay type: biochemical; settings: read-out: % inhibition at 100nM
T35 construct: purchased DiscoverX
T35 sequence (P53355 whole entry): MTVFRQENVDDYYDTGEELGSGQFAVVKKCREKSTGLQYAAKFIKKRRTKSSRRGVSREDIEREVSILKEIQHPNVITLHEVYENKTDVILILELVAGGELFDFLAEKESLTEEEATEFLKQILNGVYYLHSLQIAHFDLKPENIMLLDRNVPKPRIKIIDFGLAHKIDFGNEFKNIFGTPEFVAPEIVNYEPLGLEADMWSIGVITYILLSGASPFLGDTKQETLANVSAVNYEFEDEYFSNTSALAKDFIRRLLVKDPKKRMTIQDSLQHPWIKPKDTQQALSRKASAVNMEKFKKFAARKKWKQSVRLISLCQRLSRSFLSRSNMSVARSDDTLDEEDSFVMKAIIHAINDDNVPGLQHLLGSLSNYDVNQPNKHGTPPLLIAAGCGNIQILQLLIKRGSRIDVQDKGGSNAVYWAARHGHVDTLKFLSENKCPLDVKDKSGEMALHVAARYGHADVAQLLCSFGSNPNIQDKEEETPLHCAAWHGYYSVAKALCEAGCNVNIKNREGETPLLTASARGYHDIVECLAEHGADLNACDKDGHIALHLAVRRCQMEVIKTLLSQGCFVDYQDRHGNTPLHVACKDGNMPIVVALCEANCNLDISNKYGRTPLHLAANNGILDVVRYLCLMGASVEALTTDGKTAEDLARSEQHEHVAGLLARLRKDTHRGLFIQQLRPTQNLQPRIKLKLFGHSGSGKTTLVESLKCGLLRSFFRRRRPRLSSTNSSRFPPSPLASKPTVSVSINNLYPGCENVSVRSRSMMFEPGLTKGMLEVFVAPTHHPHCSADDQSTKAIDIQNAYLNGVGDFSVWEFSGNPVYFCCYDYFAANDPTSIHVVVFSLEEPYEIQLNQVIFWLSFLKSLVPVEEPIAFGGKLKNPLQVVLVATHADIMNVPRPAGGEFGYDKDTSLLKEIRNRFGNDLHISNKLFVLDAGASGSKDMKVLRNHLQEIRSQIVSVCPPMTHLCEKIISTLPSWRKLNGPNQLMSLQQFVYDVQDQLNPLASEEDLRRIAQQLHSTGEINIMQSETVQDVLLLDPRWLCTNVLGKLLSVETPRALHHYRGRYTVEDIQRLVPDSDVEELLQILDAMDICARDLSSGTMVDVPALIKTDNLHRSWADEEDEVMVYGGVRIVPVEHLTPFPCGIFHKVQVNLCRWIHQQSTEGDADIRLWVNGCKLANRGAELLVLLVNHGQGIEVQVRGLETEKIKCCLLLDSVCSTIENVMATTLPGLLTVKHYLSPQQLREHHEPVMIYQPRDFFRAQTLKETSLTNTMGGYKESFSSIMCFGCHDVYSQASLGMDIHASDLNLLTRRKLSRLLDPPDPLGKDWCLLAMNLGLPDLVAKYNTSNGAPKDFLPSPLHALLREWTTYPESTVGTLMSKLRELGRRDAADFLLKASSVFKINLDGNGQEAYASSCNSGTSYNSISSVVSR

[36] = target: T36, CSNK1D (Homo sapiens, UniProt P48730); assay: Proqinase Kinase profiling; assay type: biochemical; settings: read-out: % inhibition at 100nM
T36 construct: purchased DiscoverX

[37] = target: T37, VRK1 (Homo sapiens, UniProt Q99986); assay: Proqinase Kinase profiling; assay type: biochemical; settings: read-out: % inhibition at 100nM
T37 construct: purchased DiscoverX

[38] = target: T38, LRRK2_G2019S (Homo sapiens, UniProt Q5S007, G2019S); assay: Proqinase Kinase profiling; assay type: biochemical; settings: read-out: % inhibition at 100nM
T38 construct: purchased DiscoverX

[39] = target: T39, LRRK2 (Homo sapiens, UniProt Q5S007); assay: Proqinase Kinase profiling; assay type: biochemical; settings: read-out: % inhibition at 100nM
T39 construct: purchased DiscoverX

[40] = target: T40, KIT_V559D_V654A (Homo sapiens, UniProt P10721, V559D/V654A); assay: Proqinase Kinase profiling; assay type: biochemical; settings: read-out: % inhibition at 100nM
T40 construct: purchased DiscoverX

Compound	inhibition at 0.1 µM [1] [%]	inhibition at 0.1 µM [2] [%]	inhibition at 0.1 µM [3] [%]	pIC50 [4]	inhibition at 0.1 µM [5] [%]	inhibition at 0.1 µM [6] [%]	inhibition at 0.1 µM [7] [%]	inhibition at 0.1 µM [8] [%]	inhibition at 0.1 µM [9] [%]	inhibition at 0.1 µM [10] [%]	inhibition at 0.1 µM [11] [%]	inhibition at 0.1 µM [12] [%]	inhibition at 0.1 µM [13] [%]	inhibition at 0.1 µM [14] [%]	inhibition at 0.1 µM [15] [%]	inhibition at 0.1 µM [16] [%]	inhibition at 0.1 µM [17] [%]	inhibition at 0.1 µM [18] [%]	inhibition at 0.1 µM [19] [%]	inhibition at 0.1 µM [20] [%]	also measured
Clc1cc2cc(c1)-c1cnn3ccc(nc13)NCCOCCO2 [OD36]	11	5	-2	6.51	16	-4	20	46	6	9	25	28	8	9	37	-3	23	18	23	-27	inhibition at 0.1 µM [21]: 12%; inhibition at 0.1 µM [22]: 11%; inhibition at 0.1 µM [23]: 16%; inhibition at 0.1 µM [24]: 4%; inhibition at 0.1 µM [25]: 7%; inhibition at 0.1 µM [26]: 17%; inhibition at 0.1 µM [27]: -3%; inhibition at 0.1 µM [28]: 10%; inhibition at 0.1 µM [29]: 7%; inhibition at 0.1 µM [30]: 59%; inhibition at 0.1 µM [31]: 11%; inhibition at 0.1 µM [32]: 4%; inhibition at 0.1 µM [33]: 1%; inhibition at 0.1 µM [34]: 12%; inhibition at 0.1 µM [35]: 12%; inhibition at 0.1 µM [36]: 10%; inhibition at 0.1 µM [37]: -4%; inhibition at 0.1 µM [38]: 61%; inhibition at 0.1 µM [39]: 53%; inhibition at 0.1 µM [40]: -2%
Cc1cc2cc(c1)-c1cnn3ccc(nc13)NCCNC(=O)CCN(C)C2 [OD52]	1	5	6	5.80	11	-23	-4	0	2	-28	24	-22	-9	-8	25	-13	4	-2	-4	-21	inhibition at 0.1 µM [21]: -10%; inhibition at 0.1 µM [22]: -8%; inhibition at 0.1 µM [23]: -5%; inhibition at 0.1 µM [24]: 6%; inhibition at 0.1 µM [25]: 9%; inhibition at 0.1 µM [26]: -20%; inhibition at 0.1 µM [27]: -1%; inhibition at 0.1 µM [28]: -1%; inhibition at 0.1 µM [29]: -2%; inhibition at 0.1 µM [30]: 6%; inhibition at 0.1 µM [31]: -23%; inhibition at 0.1 µM [32]: 0%; inhibition at 0.1 µM [33]: 16%; inhibition at 0.1 µM [34]: 1%; inhibition at 0.1 µM [35]: 0%; inhibition at 0.1 µM [36]: 5%; inhibition at 0.1 µM [37]: -15%; inhibition at 0.1 µM [38]: 39%; inhibition at 0.1 µM [39]: 10%; inhibition at 0.1 µM [40]: -12%
